# Test results: US10821127B2, “Composition for inhibiting myeloid-derived suppressor cells comprising decitabine or its pharmaceutically acceptable salt as active ingredient” (SNU R&DB Foundation, priority 2015, dated 2020)
# Legend:
# MDSC = conditions: preclinical model; gemcitabine: spleen of tumor-induced mice (Clin Cancer Res 2005; 11: 6713-6721); cited from earlier work
# [1] = test system: colon cancer cell line MC38 expressing a human CEA gene; assay type: in vivo, mouse; conditions: every 2 days, total of 10 times
# Procedure: (§1) 150 μl PBS including a colon cancer cell line MC38 1.5×10^6 expressing a human CEA gene was injected hypodermically to the right flank of a 7 to 8-week-old female B6 mouse to form a tumor. The mouse was bred in a Seoul National University laboratory under a temperature of 23.5±1° C. and a humidity of 50±5% in a light/dark cycle of 12 hours. All animal experiments followed the guideline of the Animal Ethics Committee of Seoul National University.
# It was verified whether decitabine was usable as an anticancer chemotherapy through immune treatment based on a bone marrow-based specific drug effect. First, in order to verify an effect of the decitabine on the tumorigenic mice, the decitabine was administrated to the tumorigenic mice prepared in Example 1 and then changes in tumor size and survival rate were measured.
# Particularly, in the tumorigenic mice prepared in Example 1, decitabine (DAC) at a concentration of 40 mg/ml purchased from Sigma Co., Ltd. was diluted with 100 μl PBS to be 0, 0.125, 0.25, 0.5, and 1 mg/kg per mouse and then administrated in the right abdominal cavity (every 2 days and a total of 10 times) for each concentration to verify the tumor size and the survival rate. The tumor size was calculated by the following Equation after measuring a width and a length of a tumor mass at an interval of 2 to 3 days from the time when 10 days elapsed after injecting tumor cells: Long length×short length×short length/2. In the survival rate, the number of surviving mice in each group was calculated by the following Equation: The number of surviving mice/a total number of mice×100
# [2] = test system: cells in the spleen and the bone marrow; test: Number of cells in spleen and bone marrow of tumorigenic mice, trypan blue staining (Example 3); assay type: in vivo, mouse; conditions: intraperitoneal, every 2 days, 10 times; for number of bone marrow cells: 0, 0.25, 0.5 mg/kg, FIG. 2 right
# Procedure: as §1
# It was well-known that gemcitabine suppressed myeloid-derived suppressor cells (MDSC) derived from the tumor (Clin Cancer Res 2005; 11(18) Sep. 15, 2005), and the gemcitabine has been used as an anticancer chemotherapeutic agent. Accordingly, whether the decitabine is usable as an anticancer chemotherapeutic agent like the gemcitabine was verified through the comparison with the gemcitabine. First, in order to verify effects of decitabine and gemcitabine on cells in the spleen and the bone marrow, the decitabine and the gemcitabine were administrated to the tumorigenic mice prepared in Example 1 and then the number of cells in the spleen and the bone marrow was measured.
# (§2) Particularly, in the tumorigenic mice prepared in Example 1, decitabine (DAC) or gemcitabine (GEM) were diluted with 100 μl PBS to be 0, 0.25, 0.5 mg/kg per mouse, administrated in the right abdominal cavity (every 2 days and a total of 10 times) for each concentration, and then sacrificed to extract the spleen and the bone marrow. Thereafter, spleen cells and bone marrow cells were extracted and stained by a trypan blue staining method and then the number of cells was measured by using a hematocytometer.
# [3] = test system: immune cells in the spleen; test: Number of immune cells in spleen of tumorigenic mice, flow cytometer (Example 4-1); assay type: in vivo, mouse; conditions: for T cell populations CD3+, CD3+CD4+, CD3+CD8+ in the spleen: 0, 0.25, 0.5 mg/kg intraperitoneal, FIG. 3
# Procedure: as §2
# (§3) In order to verify effects of decitabine and gemcitabine on immune cells in the spleen, the decitabine and the gemcitabine were administrated to the tumorigenic mice prepared in Example 1 and then the numbers of cells in a T cell population, a B cell population, an NK cell population, an NKT cell population, and a myeloid-based cell population in the spleen were measured.
# (§4) Particularly, by the method disclosed in Example 3, decitabine (DAC) or gemcitabine (GEM) was administrated and then the spleen was extracted. Thereafter, each immune cell population were stained with fluorescence-bound antibodies purchased by BD Corporation and then the number of cells was measured through a flow cytometer.
# In order to measure the number of cells in the T cell population, an anti-CD3 antibody, an anti-CD4 antibody, and an anti-CD8 antibody were used (FIG. 3).
# In order to the number of cells in the B cell population, an anti-B220 antibody was used. Further, in order to measure the number of cells in the NK and NKT cell populations, anti-CD3 and anti-NK1.1 antibodies were used (FIG. 4).
# In order to measure the number of cells in the myeloid-based cell population, an anti-CD11b antibody and an anti-CD11c antibody were used (FIG. 5).
# [4] = test system: granulocytic, monokaryotic and MDSC cell populations in the spleen; test: Number of cells of subpopulations of myeloid-based cell population in spleen of tumorigenic mice (Example 4-2); assay type: in vivo, mouse
# Procedure: as §2
# (§5) In order to verify an effect of decitabine or gemcitabine on cells of a subpopulation of myeloid-based cell populations in the spleen and the bone marrow, decitabine and gemcitabine were administrated to the tumorigenic mice prepared in Example 1 and then the numbers of cells in a granulocytic cell population, a monokaryotic cell population, and an MDSC cell population were measured.
# as §4, with “Thereafter, monokaryotic and granulocytic” for “Thereafter, each immune”, “cell populations” for “cell population”, “the numbers” for “the number”, “cells were” for “cells was”
# In order to measure the numbers of cell in the monokaryotic cell population and the granulocytic cell population, anti-CD11b, anti-F480 and anti-Gr1 antibodies were used (FIG. 6).
# In order to measure the number of cells of the subpopulation of the MDSC cell population, anti-CD11b, anti-Ly6c and anti-Ly6g antibodies were used (FIG. 7).
# [5] = test system: immune cells in the bone marrow; test: Number of immune cells in bone marrow of tumorigenic mice, flow cytometer (Example 5-1); assay type: in vivo, mouse; conditions: for number of T cell populations CD3+ and CD3+CD4+ in the bone marrow: FIG. 8
# Procedure: as §2
# as §3, with “bone marrow,” for “spleen,”, “bone marrow” for “spleen”
# (§6) Particularly, by the method disclosed in Example 3, decitabine (DAC) or gemcitabine (GEM) was administrated and then the bone marrow was extracted. Thereafter, the bone marrow was stained by using the antibodies disclosed in Example 4-1, and then the number of cells was measured through a flow cytometer (FIGS. 8 to 10).
# [6] = test system: granulocytic, monokaryotic and MDSC cell populations in the bone marrow; test: Number of cells of subpopulations of myeloid-based cell population in bone marrow of tumorigenic mice (Example 5-2); assay type: in vivo, mouse
# Procedure: as §2
# as §5, with “populations in the bone” for “populations in the spleen and the bone”, “cell population in the bone marrow were measured.” for “cell population were measured.”
# as §6, with “4-2,” for “4-1,”, “11” for “8”, “12).” for “10).”
# MDSC cell population = test: In vitro apoptosis of MDSC cell population, bone marrow stem cells co-cultured with MC38 in Transwell (Example 6); assay type: cell-based, mouse; conditions: 50 nM, as compared with the gemcitabine; FIG. 13
# Procedure: In order to verify effects of decitabine and gemcitabine on apoptosis of an MDSC cell population, the decitabine or the gemcitabine was treated in vitro and then a change in the number of cells in the MDSC cell population was measured.
# Particularly, from the tumorigenic mice prepared in Example 1, the bone marrow was extracted and then bone marrow stem cells were isolated. Thereafter, while the bone marrow stem cells in a bottom well and cells of a colon cancer cell line MC38 expressing a CEA gene were co-cultured in an insert well […] with a DMEM culture medium by using a Transwell system, the decitabine and the gemcitabine of concentrations of 50 nM were treated at a third day after cell culture, respectively, and then cells after two days were collected. Thereafter, in order to measure the numbers of cells in the myeloid-based cell population and the MDSC cell population, the cell populations were stained by using an anti-CD11b antibody and an anti-GR1 antibody and then the number of cells was measured through a flow cytometer.
# IL-6 = test: Cytokine expression in tumor cells after decitabine treatment, PCR (Example 7): IL-6; assay type: cell-based; conditions: MC38 expressing the CEA gene, 0, 10, 100 nM, 48 hours; FIG. 14
# Procedure: (§7) In order to verify a possibility of a result that the MDSC creation itself in the bone marrow is decreased by the tumor cells, in addition to a direct apoptotic effect of the MDSC by the reduction of the MDSC cell population caused by the decitabine, an expression change in cytokines inducing the creation of the MDSC cell population after treating the decitabine in the tumor cells was measured.
# (§8) Particularly, the decitabine was treated in each well for each concentration 0, 10, 100 nM in a colon cancer cell line MC38 expressing the CEA gene which was cultured for 1 week in a 6-well plate and cultured for 48 hours, and then the cells were collected. Thereafter, from the collected cells, total RNA was isolated by using a trizol reagent (Invitrogen, Carlsbad, Calif.) and then the isolated RNA 5 μg reacted with reverse transcriptase for 1 hour at 42° C. to synthesize a cDNA and 5 minutes at 95° C. to inactivate the enzyme. Polymerase chain reaction (PCR) was performed by using a primer in the following Table 1 by using the cDNA as a template of PCR and a PCR product was electrophoresed with an agarose gel and visualized to confirm expression of IL-6, IFN-γ and VEGF genes.
# IFN-γ = test: Cytokine expression in tumor cells after decitabine treatment, PCR (Example 7): IFN-γ; assay type: cell-based; conditions: MC38 expressing the CEA gene, 0, 10, 100 nM, 48 hours; FIG. 14
# Procedure: as §7, §8
# VEGF = test: Cytokine expression in tumor cells after decitabine treatment, PCR (Example 7): VEGF; assay type: cell-based; conditions: MC38 expressing the CEA gene, 0, 10, 100 nM, 48 hours; FIG. 14
# Procedure: as §7, §8
# [7] = test system: myeloid-derived suppressor cells; test: Dose with MDSC suppression effect in tumorigenic mice; assay type: in vivo
# Procedure: In the preferred embodiment of the present invention, the inventors verified that in order to verify whether the decitabine suppresses the myeloid-derived suppressor cells produced from the bone marrow by the tumor, tumorigenic mice were prepared and the decitabine was administrated for each concentration, and as a result, an effect of suppressing the myeloid-derived suppressor cells by the decitabine is excellent in a dose range of 0.5 to 1 mg/kg.
# Accordingly, through Examples 1 to 8, it was verified that the decitabine had excellent effects of suppressing the MDSC and inducing the apoptosis as compared with the gemcitabine and may enhance the effect of a cancer immunotherapy. Further, when the decitabine has an excellent MDSC suppression effect at 0.5 mg/kg and a fifth part to a tenth part of an effective dose (5.25 mg/kg/once, 34 mg/kg/cycle) applied to an actual patient is compared with an effective dose of 120 mg/kg at which the gemcitabine has the MDSC suppression effect, it was verified that the effective dose is a low concentration of a hundredth part or more.
# [8] = test system: myeloid-derived suppressor cells; conditions: gemcitabine comparison dose; cited from earlier work
# [9] = 0, 0.125, 0.25, 0.5, 1 mg/kg, right abdominal cavity, FIG. 1
# [10] = at a lower concentration than gemcitabine, FIG. 4
# [11] = similarly to the gemcitabine, FIG. 6
# [12] = compared with the gemcitabine, FIG. 11
compound,measurement,setting,value
"O=c1[nH]cc(F)c(=O)[nH]1 [5-FU, 5-fluorouracil]",number of MDSC,MDSC,significantly reduces
"Nc1ncn([C@H]2C[C@H](O)[C@@H](CO)O2)c(=O)n1 [decitabine, 5-aza-2′-deoxycytidine]",survival rate,[1]; [9],no difference
same,tumor size,[1]; [9],no difference
same,toxicity induction by repeated administration,[1]; up to 1 mg/kg,exclude a toxicity induction possibility
same,number of bone marrow cells,[2],not significantly exhibited
same,number of spleen cells,"[2]; dose concentration 0.5 mg/kg, FIG. 2 left",significantly reduced
same,"T cell populations CD3+, CD3+CD4+, CD3+CD8+ in the spleen",[3],slight
same,"NKT cell population CD3+NK1.1+ in the spleen, significant change",[3]; FIG. 4,not induced
same,myeloid-based cell populations CD11b+ and CD11c+ in the spleen,"[3]; as compared with the gemcitabine, FIG. 5",rapid reduction
same,B cell population B220+ in the spleen,[3]; [10],reduction
same,NK cell population CD3-NK1.1+ in the spleen,[3]; [10],reduction
same,granulocytic cell population CD11b+F480-Gr1hi in the spleen,[4]; [11],rapid reduction
same,monokaryotic cell population CD11b+F480+Gr1- in the spleen,[4]; [11],rapid reduction
same,"subpopulations CD11b+Ly6c+Ly6g+, CD11b+Ly6chi of the MDSC cell population in the spleen","[4]; to the degree of similar to or higher than the gemcitabine, FIG. 7",rapid reduction
same,number of T cell populations CD3+ and CD3+CD4+ in the bone marrow,[5],increased
same,"NK cell population CD3-NK1.1+ in the bone marrow, significant changes",[5]; FIG. 9,not induced
same,"NKT cell population CD3+NK1.1+ in the bone marrow, significant changes",[5]; FIG. 9,not induced
same,B cell population B220+ in the bone marrow,"[5]; as compared with the gemcitabine, FIG. 9",reduction
same,myeloid-based cell populations CD11b+ and CD11c+ in the bone marrow,"[5]; as compared with the gemcitabine, FIG. 10",rapid reduction
same,granulocytic cell population CD11b+F480-Gr1hi in the bone marrow,[6]; [12],more rapid reduction
same,monokaryotic cell population CD11b+F480+Gr1- in the bone marrow,[6]; [12],more rapid reduction
same,subpopulations CD11b+Ly6c+Ly6g+ and CD11b+Ly6chi of the MDSC cell population in the bone marrow,"[6]; to a much higher degree than the gemcitabine, FIG. 12",rapid reduction
same,number of cells in the MDSC cell population in vitro,MDSC cell population,rapid reduction
same,creation degree (expression) of IL-6 in the tumor,IL-6,reduced
same,creation degree (expression) of IFN-γ in the tumor,IFN-γ,reduced
same,creation degree (expression) of VEGF in the tumor,VEGF,reduced
same,dose with excellent MDSC suppression effect,[7],0.5 mg/kg
Nc1ccn([C@@H]2O[C@H](CO)[C@@H](O)C2(F)F)c(=O)n1 [gemcitabine],number of bone marrow cells,[2],increased in a concentration-dependent manner
same,"T cell populations CD3+, CD3+CD4+, CD3+CD8+ in the spleen",[3],rapid reduction
same,number of T cell populations CD3+ and CD3+CD4+ in the bone marrow,[5],increased
same,effective dose with MDSC suppression effect,[8],120 mg/kg
same,number of MDSC,MDSC,significantly reduces
